From article PMC9500072, “Topical application of an irreversible small molecule inhibitor of lysyl oxidases ameliorates skin scarring and fibrosis” (Nature Communications, 2022)
Where two headings read alike, the source gives them in different places.

Assays:
Format in all cases: biochemical
recombinant human LOXL4 = target: T1, recombinant human LOXL4 (Homo sapiens, UniProt Q96JB6); test: Amplex Red oxidation assay, LOXL4 inhibition
T1 construct: Dr. Fernando Rodríguez Pascual, university of Madrid, Spain (academic provider)
T1 sequence (Q96JB6 25-756): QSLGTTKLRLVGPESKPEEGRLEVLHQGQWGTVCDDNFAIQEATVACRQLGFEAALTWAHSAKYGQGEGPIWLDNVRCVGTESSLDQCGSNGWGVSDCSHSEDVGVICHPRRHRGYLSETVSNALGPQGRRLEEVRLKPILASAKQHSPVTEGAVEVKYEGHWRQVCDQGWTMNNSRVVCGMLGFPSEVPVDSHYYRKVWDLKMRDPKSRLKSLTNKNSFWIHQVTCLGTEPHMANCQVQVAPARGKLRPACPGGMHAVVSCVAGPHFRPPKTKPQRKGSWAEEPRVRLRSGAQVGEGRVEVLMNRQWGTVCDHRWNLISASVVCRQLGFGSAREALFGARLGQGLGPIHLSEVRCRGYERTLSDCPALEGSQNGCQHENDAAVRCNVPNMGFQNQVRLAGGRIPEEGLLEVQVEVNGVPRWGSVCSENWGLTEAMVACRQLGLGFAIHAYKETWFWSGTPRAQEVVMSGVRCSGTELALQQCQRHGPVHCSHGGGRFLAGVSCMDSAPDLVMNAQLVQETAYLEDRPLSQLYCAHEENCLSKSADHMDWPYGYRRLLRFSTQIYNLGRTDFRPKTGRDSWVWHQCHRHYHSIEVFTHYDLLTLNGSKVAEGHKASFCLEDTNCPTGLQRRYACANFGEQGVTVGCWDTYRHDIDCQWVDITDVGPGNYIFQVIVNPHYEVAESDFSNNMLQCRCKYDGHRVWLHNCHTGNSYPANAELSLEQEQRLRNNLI
Method: (§1) The measurement of the enzymatic activity of all lysyl oxidase family members was based on the detection of hydrogen peroxide with an Amplex-Red oxidation assay, as previously described; miniaturized in 384 well formats, with the appropriate combination of substrate and assay buffer for each individual enzyme. After a 30 min pre-incubation of the enzyme at 37 °C with the test compound (or with different incubation times for the time-dependency assay), one volume of reaction mixture containing 120 μM Amplex Red (AR) (Life Technologies), 1.5 U/mL horseradish peroxidase (HRP) (Sigma-Aldrich) and the specific substrate was added to each sample. The relative fluorescence units (RFU) were then measured every 2.5 min for 30 min at 37 °C, excitation 565 nm and emission 590, on a BMG Clariostar Microplate Reader. All the substrates were used at concentrations corresponding to their Km towards the corresponding enzyme, or with a range of different concentrations for the substrate competition experiments.
(§2) Lysyl oxidases assay buffer contained 1.2 M urea, 50 mM sodium borate buffer, pH 8.2 and 100 µM β-aminoproprionitrile (BAPN, Sigma-Aldrich) was used for low control.
Recombinant human LOXL1 was expressed and purified from cDNA (GeneArt) and 10 mM putrescine was used as substrate. Recombinant human and mouse LOXL2 (R&D Systems) were challenged with 5 mM putrescine (Sigma-Aldrich) as the substrate. Rat and dog recombinant LOXL2 were amplified and purified in house from HEK-293 clones kindly provided by Dr. Fernando Rodríguez Pascual, Madrid University, and used in the same conditions as for the human form. 2 mM putrescine was used as the substrate for recombinant human LOXL3 (R&D Systems) and LOXL4 (Dr. Fernando Rodríguez Pascual, university of Madrid, Spain) assays.

Human Recombinant MAO-A = target: T2, Human Recombinant MAO-A (Homo sapiens, UniProt P21397); test: Amine oxidase inhibition profile, MAO-A
T2 sequence (P21397 1-527): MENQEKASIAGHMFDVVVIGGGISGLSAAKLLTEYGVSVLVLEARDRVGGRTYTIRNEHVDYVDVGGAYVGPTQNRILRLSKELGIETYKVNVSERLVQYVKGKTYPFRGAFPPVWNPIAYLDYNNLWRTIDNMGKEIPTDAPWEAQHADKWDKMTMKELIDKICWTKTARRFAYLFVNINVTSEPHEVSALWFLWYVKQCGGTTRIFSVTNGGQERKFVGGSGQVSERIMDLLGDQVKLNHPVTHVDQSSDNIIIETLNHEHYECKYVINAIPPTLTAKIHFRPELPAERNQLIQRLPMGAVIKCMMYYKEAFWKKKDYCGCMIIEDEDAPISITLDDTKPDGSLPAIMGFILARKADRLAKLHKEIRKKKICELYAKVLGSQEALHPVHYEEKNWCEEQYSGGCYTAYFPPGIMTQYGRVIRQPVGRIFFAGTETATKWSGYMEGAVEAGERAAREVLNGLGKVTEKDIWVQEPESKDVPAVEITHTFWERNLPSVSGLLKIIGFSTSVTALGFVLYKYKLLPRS
Description: (§3) Supplem entary Materi als:
(§4) Supplementary Table S1: Amine oxidase inhibition profile of PXS -4787, PXS-6302 and
(§5) Supplementary Table S2: Perm eability profile of PXS -6302.

Human Fibroblast LOX = target: T3, Human Fibroblast LOX (Homo sapiens, UniProt P28300); test: Amine oxidase inhibition profile, human fibroblast LOX
T3 construct: Fibroblast LOX; endogenous in cells; host or cells: human fibroblasts
T3 sequence (P28300 169-417): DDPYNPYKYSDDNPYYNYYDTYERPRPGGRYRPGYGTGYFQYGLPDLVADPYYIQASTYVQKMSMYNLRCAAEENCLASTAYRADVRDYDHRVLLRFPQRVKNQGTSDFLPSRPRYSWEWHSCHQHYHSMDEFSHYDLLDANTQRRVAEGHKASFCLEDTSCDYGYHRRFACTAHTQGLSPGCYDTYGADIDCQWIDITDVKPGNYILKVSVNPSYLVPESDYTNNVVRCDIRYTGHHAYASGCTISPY
Method: as §1, §2, §3, §4, §5

[1] = 30 min pre-incubation, read-out: rh LOXL4 IC50
[2] = read-out: Recombinant MAO-A IC50
[3] = read-out: Human Fibroblast LOX IC50
[4] = read-out: Human Recombinant LOXL4 pIC50±SD (converted)

SMILES | Human Recombinant LOXL4 pIC50±SD (recombinant human LOXL4) | IC50 (recombinant human LOXL4; [1]) | Recombinant MAO-A pIC50 (Human Recombinant MAO-A) | IC50 (Human Recombinant MAO-A; [2]) | Human Fibroblast LOX pIC50±SD (Human Fibroblast LOX) | IC50 (Human Fibroblast LOX; [3]) | inhibition at 30 µM (recombinant human LOXL4; log conc -4.5229, read-out: Fig 2A inhibition (mean)) | inhibition at 10 µM (recombinant human LOXL4; log conc -5, read-out: Fig 2A inhibition (mean)) | inhibition at 3.333 µM (recombinant human LOXL4; log conc -5.4771, read-out: Fig 2A inhibition (mean)) | inhibition at 1.111 µM (recombinant human LOXL4; log conc -5.9542, read-out: Fig 2A inhibition (mean)) | inhibition at 0.3704 µM (recombinant human LOXL4; log conc -6.4313, read-out: Fig 2A inhibition (mean)) | inhibition at 0.1235 µM (recombinant human LOXL4; log conc -6.9083, read-out: Fig 2A inhibition (mean)) | inhibition at 0.0412 µM (recombinant human LOXL4; log conc -7.3851, read-out: Fig 2A inhibition (mean)) | inhibition at 0.0137 µM (recombinant human LOXL4; log conc -7.8633, read-out: Fig 2A inhibition (mean)) | inhibition at 0.0046 µM (recombinant human LOXL4; log conc -8.3372, read-out: Fig 2A inhibition (mean)) | inhibition at […] (recombinant human LOXL4; log conc -8.8239, read-out: Fig 2A inhibition (mean)) | inhibition at 0.0005 µM (recombinant human LOXL4; log conc -9.301, read-out: Fig 2A inhibition (mean)) | IC50 (recombinant human LOXL4; [4]) | IC50 (Human Recombinant MAO-A) | IC50 (Human Fibroblast LOX; read-out: Human Fibroblast LOX pIC50±SD (converted))
N#CCCN [BAPN, β-aminoproprionitrile, reference compound] | 6.6 ± 0.1 | 0.28 µM | < 4.5 | > 30 µM | 5.5 ± 0.1 | 3.04 µM |  |  |  |  |  |  |  |  |  |  |  |  |  | 
NC/C=C(\F)CS(=O)(=O)c1ccccc1 [PXS-4787] |  | 0.22 µM |  | > 30 µM |  | 5.19 µM | 102% | 101% | 98.6% | 89.8% | 66.3% | 36.5% | 14.1% | 8.84% | 2.39% | 0.738% | -0.645% | 0.2 µM |  | 
NC/C=C(\F)C(F)(F)S(=O)(=O)c1ccccc1 [PXS-6302] |  | 0.32 µM |  |  |  | 4.51 µM |  |  |  |  |  |  |  |  |  |  |  | 0.316 µM | > 30 µM | 3.98 µM
